Measurements: ChEMBL document CHEMBL1201862, “PubChem BioAssay data set” (2004)
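Results reflect a 48-hour exposure of cells in 96-well plates to compound at five concentrations. GI50 = concentration required for 50% inhibition of growth.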 The source made the active and inactive calls. Rule as the data show it: active = GI50 up to about 1.1 µM and inactive = higher.

Columns and labels:
Experiment in all cases: growth of human tumour cells (NCI), 48 h
HCT-15 = system: HCT-15
Hs-578T = system: Hs-578T
K562 = system: K562
MDA-MB-231 = system: MDA-MB-231
MDA-MB-435 = system: MDA-MB-435
MOLT-4 = system: MOLT-4
RPMI-8226 = system: RPMI-8226
SF-268 = system: SF-268
SF-295 = system: SF-295
SNB-19 = system: SNB-19
SR = system: SR
SW-620 = system: SW-620
NCI-H23 = system: NCI-H23
DLD-1 = system: DLD-1
DMS-273 = system: DMS-273
M19-MEL = system: M19-MEL
SK-OV-3 = system: SK-OV-3
XF498 = system: XF498
LXFL 529 = system: LXFL 529
HOP-18 = system: HOP-18

SMILES	GI50 (HCT-15) [µM]	GI50 (Hs-578T)	GI50 (K562)	GI50 (MDA-MB-231)	GI50 (MDA-MB-435)	GI50 (MOLT-4)	GI50 (RPMI-8226)	GI50 (SF-268)	GI50 (SF-295)	GI50 (SNB-19)	GI50 (SR)	GI50 (SW-620)	GI50 (NCI-H23)	GI50 (DLD-1)	GI50 (DMS-273)	GI50 (M19-MEL)	GI50 (SK-OV-3)	GI50 (XF498)	GI50 (LXFL 529)	GI50 (HOP-18)
C=C(C)[C@@H]1CCC2=C[C@H](CC(C)=CC3=CC(C)=C(O3)[C@@H]1OC)OC2=O	> 100	33.6 µM (inactive)	> 100 µM (inactive)	29.5 µM (inactive)	> 100 µM (inactive)	> 100 µM (inactive)	> 100 µM (inactive)	33.7 µM (inactive)	21 µM (inactive)	37.2 µM (inactive)	> 100 µM (inactive)	> 100 µM (inactive)								
CCOC(=O)c1ccc(N(CCOS(=O)(=O)c2ccc(C)cc2)CCOS(=O)(=O)c2ccc(C)cc2)cc1	> 100	> 100 µM (inactive)	> 100 µM (inactive)	27.2 µM (inactive)	> 100 µM (inactive)	2.7 µM (inactive)	10 µM (inactive)	> 100 µM (inactive)	> 100 µM (inactive)	> 100 µM (inactive)		1.95 µM (inactive)	> 100 µM (inactive)							
COC(=O)c1ccc(/N=N/N(C)COc2ccc([N+](=O)[O-])cc2)cc1	> 90.8		50.7 µM (inactive)			> 100 µM (inactive)	38.7 µM (inactive)	> 78.2 µM (inactive)	> 77.4 µM (inactive)	> 100 µM (inactive)		64.7 µM (inactive)	> 100 µM (inactive)	> 100 µM (inactive)	> 100 µM (inactive)	> 100 µM (inactive)	> 100 µM (inactive)	> 100 µM (inactive)		
O=C1C(Cl)N(c2cccc(Cl)c2)C1c1c[nH]c2ccccc12 (configuration not stated)			> 100 µM (inactive)			> 100 µM (inactive)	> 100 µM (inactive)	> 100 µM (inactive)	> 100 µM (inactive)	> 100 µM (inactive)	> 100 µM (inactive)	> 100 µM (inactive)	> 100 µM (inactive)			> 100 µM (inactive)	> 100 µM (inactive)	> 100 µM (inactive)	> 100 µM (inactive)	
O=C(O)Cc1cccc2c1Oc1ccccc1S2	> 100		> 100 µM (inactive)			> 100 µM (inactive)	> 100 µM (inactive)	> 100 µM (inactive)	> 100 µM (inactive)	> 100 µM (inactive)		> 100 µM (inactive)	> 100 µM (inactive)	> 100 µM (inactive)	> 100 µM (inactive)	> 100 µM (inactive)	> 100 µM (inactive)		> 100 µM (inactive)	
Clc1cc2c(c(CSC3=NCN(CC4CC4)CN3)c1)OCOC2	21.5	33.7 µM (inactive)	28.1 µM (inactive)	19.5 µM (inactive)	21.8 µM (inactive)	22.5 µM (inactive)	12.1 µM (inactive)	27.3 µM (inactive)	24.6 µM (inactive)	26.1 µM (inactive)	15.2 µM (inactive)	20.5 µM (inactive)	17.1 µM (inactive)				24.6 µM (inactive)			
CN1NC(c2ccccc2)=C(C#N)C(=O)CC1c1ccc(Br)cc1 (configuration not stated)	24.3						37.8 µM (inactive)	35.9 µM (inactive)	11.9 µM (inactive)	28.8 µM (inactive)	36.2 µM (inactive)	25.6 µM (inactive)	56.4 µM (inactive)	26.1 µM (inactive)			31.8 µM (inactive)	28.6 µM (inactive)	35.7 µM (inactive)	17.9 µM (inactive)
O=NN1C(c2ccccc2)CCCC1c1ccccc1 (configuration not stated)	62.4		35.9 µM (inactive)			27.9 µM (inactive)	21.7 µM (inactive)	> 100 µM (inactive)	22.1 µM (inactive)	> 100 µM (inactive)		> 92.7 µM (inactive)	42 µM (inactive)	> 90.6 µM (inactive)	39.8 µM (inactive)	85.9 µM (inactive)	31.9 µM (inactive)	31.7 µM (inactive)		> 77.8 µM (inactive)
COc1ccc(-c2cc(-c3cc(OC)c(OC)c(OC)c3)cc(-c3cc4ccccc4oc3=O)n2)cc1	30.9	2.38 µM (inactive)	30.1 µM (inactive)	2.3 µM (inactive)	16.7 µM (inactive)	> 100 µM (inactive)		3.45 µM (inactive)	4.99 µM (inactive)	10.2 µM (inactive)	9.79 µM (inactive)	25.2 µM (inactive)	7.87 µM (inactive)				3.83 µM (inactive)			
CCOC(=O)CC(=O)CSc1c(-c2ccccc2)c(=O)n(-c2ccccc2)c(=S)n1-c1ccccc1	> 100	> 100 µM (inactive)	> 100 µM (inactive)	> 100 µM (inactive)	> 100 µM (inactive)	38.9 µM (inactive)		> 100 µM (inactive)	> 100 µM (inactive)	> 100 µM (inactive)	95.1 µM (inactive)	> 100 µM (inactive)	> 100 µM (inactive)				> 100 µM (inactive)			
O=C(CC(C(=O)c1cccs1)c1ccc2c(c1)OCO2)c1ccc(Br)cc1 (configuration not stated)	> 100		> 100 µM (inactive)	> 100 µM (inactive)	> 100 µM (inactive)	> 100 µM (inactive)	> 100 µM (inactive)	> 100 µM (inactive)	> 100 µM (inactive)	8.51 µM (inactive)	> 100 µM (inactive)	> 100 µM (inactive)	> 100 µM (inactive)				> 100 µM (inactive)			
CC(OC(C)(C)C)[C@H](NC(=O)OCC(Cl)(Cl)Cl)C(=O)O (some centres not stated)	> 100		> 100 µM (inactive)			> 100 µM (inactive)	> 100 µM (inactive)	> 100 µM (inactive)	> 100 µM (inactive)	> 100 µM (inactive)	> 100 µM (inactive)	> 100 µM (inactive)	> 100 µM (inactive)	> 100 µM (inactive)	> 100 µM (inactive)	> 100 µM (inactive)	> 100 µM (inactive)	> 100 µM (inactive)	> 100 µM (inactive)	
CC(=O)O[C@]12CCCCCC1C1(O)C(O)CCCC[C@H]12 (some centres not stated)	> 100		> 100 µM (inactive)			> 100 µM (inactive)	> 100 µM (inactive)	> 100 µM (inactive)	> 100 µM (inactive)	> 100 µM (inactive)	> 100 µM (inactive)	> 100 µM (inactive)	> 100 µM (inactive)		> 100 µM (inactive)	> 100 µM (inactive)	> 100 µM (inactive)	> 100 µM (inactive)	> 100 µM (inactive)	
Cc1ccc(-c2cc(-c3ccco3)c(C#N)c(=O)n2C2OC(CO)C(O)C(O)C2O)cc1 (configuration not stated)	83.6		> 100 µM (inactive)			> 100 µM (inactive)	73.3 µM (inactive)	53 µM (inactive)	33.6 µM (inactive)	68.2 µM (inactive)	> 100 µM (inactive)	93.8 µM (inactive)	37.1 µM (inactive)	67.6 µM (inactive)	50.7 µM (inactive)		28.7 µM (inactive)		61.9 µM (inactive)	> 100 µM (inactive)
C[C@]12CCC(=O)C(O)=C1CC[C@@H]1[C@@H]2CC[C@]2(C)C(=O)CC[C@@H]12 [FORMESTANE]	> 100	> 100 µM (inactive)	> 89.9 µM (inactive)	> 100 µM (inactive)	> 100 µM (inactive)	> 75.9 µM (inactive)	> 100 µM (inactive)	> 100 µM (inactive)	> 100 µM (inactive)	> 100 µM (inactive)	> 100 µM (inactive)	> 100 µM (inactive)	> 100 µM (inactive)	> 100 µM (inactive)			> 100 µM (inactive)	88.1 µM (inactive)	59.3 µM (inactive)	
C=CCN1/C(=C(\C#N)c2nc3ccccc3[nH]2)Sc2c1nc[nH]c2=O	> 100		> 100 µM (inactive)			> 100 µM (inactive)	> 100 µM (inactive)	> 100 µM (inactive)	> 100 µM (inactive)	> 100 µM (inactive)	> 100 µM (inactive)	> 100 µM (inactive)	> 100 µM (inactive)	> 100 µM (inactive)	> 100 µM (inactive)	> 100 µM (inactive)	> 100 µM (inactive)	> 100 µM (inactive)	> 100 µM (inactive)	
N#CC1(C#N)C(=O)c2ccncc2C1=O	> 100	> 100 µM (inactive)	> 100 µM (inactive)	> 100 µM (inactive)	> 100 µM (inactive)		> 100 µM (inactive)	> 100 µM (inactive)	> 100 µM (inactive)	> 100 µM (inactive)	> 100 µM (inactive)	> 100 µM (inactive)	> 100 µM (inactive)				> 100 µM (inactive)			
O=C1NC2=C(CCCC/C2=N\O)C12CCCCC2	> 100		> 100 µM (inactive)			57.8 µM (inactive)		> 100 µM (inactive)	> 100 µM (inactive)	> 100 µM (inactive)	80.9 µM (inactive)	> 100 µM (inactive)	> 100 µM (inactive)	> 100 µM (inactive)		> 100 µM (inactive)	> 100 µM (inactive)	> 100 µM (inactive)	> 100 µM (inactive)	
O=S(=O)(O)c1ccc(/N=N\c2ccc(/N=N/c3ccc(/C=C/c4ccc(/N=[N+](\[O-])c5ccc(/C=C/c6ccc(/N=N/c7ccc(/N=N/c8ccc(S(=O)(=O)O)cc8)c8ccccc78)cc6S(=O)(=O)O)c(S(=O)(=O)O)c5)cc4S(=O)(=O)O)c(S(=O)(=O)O)c3)c3ccccc23)cc1	> 100		> 100 µM (inactive)			> 100 µM (inactive)	> 100 µM (inactive)	> 100 µM (inactive)	> 74.6 µM (inactive)	> 10 µM (inactive)		> 100 µM (inactive)	> 100 µM (inactive)	> 100 µM (inactive)	> 100 µM (inactive)	> 100 µM (inactive)	> 100 µM (inactive)	> 66.8 µM (inactive)		30.5 µM (inactive)
